Test results reported in patent EP0292023A2, “Pyrimidine derivatives” (F. HOFFMANN-LA ROCHE AG, priority 1987, dated 1988).

Experiments:
[1] = system: HTLV III (Stamm RF); assay: Activity against HIV (p24 antigen capture assay in infected C8166 cells); type: cell-based; settings: concentration giving 50% protection; C8166 cells infected with 10-fold TCD₅₀, 72 h incubation at 37°C, viral protein 24 antigen in supernatant; read-out: IC₅₀
Description: (B) Wirksamkeit gegen HIV
In diesem Versuch verwendet man HTLV III (Stamm RF), gezüchtet in C8166-Zellen (eine menschliche CD4⁺ T-Lymphoblastenlinie), RPM1 1640 Medium mit Bicarbonatpuffer, Antibiotika und 10%igem fötalem Rinderserum. Eine Zellensuspen sion wird mit der 10-fachen TCD₅₀ des Virus infiziert. Man lässt 90 Minuten bei 37°C adsorbieren. Die Zellen werden mit dem Medium gewaschen. Der Versuch wird in 6 ml Gewebekulturröhren durchgeführt. Jedes Rohr enthalt 2 x 10⁵ infizierte Zellen in 1,5 ml Medium. Es werden 15 µl einer Lösung der Substanz in wässrigem Medium oder in DMSO zugesetzt. Nach 72 Stunden Inkubation bei 37°C in einer feuchten 5% CO₂ enthaltenden Atmosphäre werden die Kulturen zentrifugiert. Ein aliquoter Teil des Ueberstandes wird solubilisiert und einem Antigenabfangversuch unterworfen unter Verwendung eines primären Antiserums mit besonderer Reaktivität gegen virales Protein 24 und eines Meerrettich-Peroxidase-Detektionssystems. Die Farbenerzeugung wird spektrophotometrisch gemessen und in Abhängigkeit der Konzentration der Testsubstanz dargestellt. Die einen 50%igen Schutz erzeugende Konzentration (IC₅₀) wird ermittelt. In diesem Test hat DFAC ein IC₅₀ von 1 µM.

[2] = system: Schaf-Lentiviren des Stammes WLC-1; assay: Activity against sheep lentivirus (protection from cytopathic effect in SCP cells); type: cell-based; settings: minimal concentration giving 100% protection from cytopathic effect, 12 days incubation at 37°C, crystal violet staining, visual reading
Source text: (A) Aktivität gegen Schaf-Lentiviren
In diesem Versuch verwendet man Schaf-Lentiviren des Stammes WLC-1, der im Plexus chorioideus (SCP) des Schafs mit 10% fötalem Rinderserum enthaltenden Medium gezüchtet wurde. Die Verbindungen werden in 96 Vertiefungen enthaltenden Platten getestet. Jede Vertiefung enthält 10⁴SCP-Zellen, die 48 Stunden inkubiert wurden. Die Testverbindungen werden, gelöst in Dimethylsulfoxid (DMSO), bis zu einer Endkonzentration von 1% DMSO hinzugefügt, zusammen mit einem Virus-Inokulum, das innert 12 Tagen einen 100%igen cytopathischen Effekt bewirkt. Nach 12-tägiger Inkubation bei 37°C werden die Platten mit Kristallviolett angefärbt. Effekt in den die Testverbindungen enthaltenden Vertiefungen wird visuell durch Vergleich mit lediglich den Virus enthaltenden Vertiefungen und nicht-infizierten Vertiefungen ermittelt. Die Wirksamkeit (MPC) ist die minimale Konzentration der Testverbindung, die einen 100%igen Schutz bewirkt. In diesem Versuch hat DFAC einen MPC von 2,5 µM.

For `Nc1ccn([C@@H]2O[C@H](CO)C[C@@H]2F)c(=O)n1` [DFAC, 1-(2′,3′-Dideoxy-2′-fluor-b-D-arabinofuranosyl)cytosin], the IC50 [1] was 1000 nM and the MPC [2] was 2,5 µM.
